# In the kinase profiling compilation of Christmann-Franck et al. (2016):
# Experiments:
# Test in all cases: KINOMEscan competition binding
# Conditions in all cases: compound 1.0 µM
# [1] = system: EGFR (human), P00533 [L858R]
# PAK6 (human) = PAK6 (human) (UniProt Q9NQU5)
# CDK9 (human) = CDK9 (human) (UniProt P50750)
# MAP3K6 (human) = MAP3K6 (human) (UniProt O95382)
# NEK4 (human) = NEK4 (human) (UniProt P51957)
# EIF2AK2 (human) = EIF2AK2 (human) (UniProt P19525)
# PIK3C2G (human) = PIK3C2G (human) (UniProt O75747)
# TSSK1B (human) = TSSK1B (human) (UniProt Q9BXA7)
# RPS6KA4 KD2 (human) = RPS6KA4 KD2 (human) (UniProt O75676)
# LATS2 (human) = LATS2 (human) (UniProt Q9NRM7)
# PRKAA2 (human) = PRKAA2 (human) (UniProt P54646)
# CDKL1 (human) = CDKL1 (human) (UniProt Q00532)
# PRKCQ (human) = PRKCQ (human) (UniProt Q04759)
# STK16 (human) = STK16 (human) (UniProt O75716)
# EPHA2 (human) = EPHA2 (human) (UniProt P29317)
# PRKACB (human) = PRKACB (human) (UniProt P22694)
# CDC2L2 (human) = CDC2L2 (human) (UniProt Q9UQ88)
# MYO3A (human) = MYO3A (human) (UniProt Q8NEV4)
# NTRK3 (human) = NTRK3 (human) (UniProt Q16288)
# MAP3K4 (human) = MAP3K4 (human) (UniProt Q9Y6R4)
# BMX (human) = BMX (human) (UniProt P51813)
# STK33 (human) = STK33 (human) (UniProt Q9BYT3)
# EIF2AK1 (human) = EIF2AK1 (human) (UniProt Q9BQI3)
# CAMKK1 (human) = CAMKK1 (human) (UniProt Q8N5S9)
# ACVR1 (human) = ACVR1 (human) (UniProt Q04771)
# RPS6KA6 KD2 (human) = RPS6KA6 KD2 (human) (UniProt Q9UK32)
# BMPR2 (human) = BMPR2 (human) (UniProt Q13873)
# CAMK2B (human) = CAMK2B (human) (UniProt Q13554)
# [2] = system: KIT (human), P10721 [V559D]
# DAPK3 (human) = DAPK3 (human) (UniProt O43293)
# STK38L (human) = STK38L (human) (UniProt Q9Y2H1)
# [3] = biological target: JAK3 JH1 catalytic (human) (UniProt P52333)
# [4] = system: RET (human), P07949 [M918T]
# [5] = system: KIT (human), P10721 [A829P]
# CDK3 (human) = CDK3 (human) (UniProt Q00526)
# CASK (human) = CASK (human) (UniProt O14936)
# MAPK12 (human) = MAPK12 (human) (UniProt P53778)
# BLK (human) = BLK (human) (UniProt P51451)
# EPHA1 (human) = EPHA1 (human) (UniProt P21709)
# PRPF4B (human) = PRPF4B (human) (UniProt Q13523)
# DMPK (human) = DMPK (human) (UniProt Q09013)
# [6] = system: KIT (human), P10721 [D816H]
# STK38 (human) = STK38 (human) (UniProt Q15208)
# BLK (human), sequence (P51451 whole entry, looked up): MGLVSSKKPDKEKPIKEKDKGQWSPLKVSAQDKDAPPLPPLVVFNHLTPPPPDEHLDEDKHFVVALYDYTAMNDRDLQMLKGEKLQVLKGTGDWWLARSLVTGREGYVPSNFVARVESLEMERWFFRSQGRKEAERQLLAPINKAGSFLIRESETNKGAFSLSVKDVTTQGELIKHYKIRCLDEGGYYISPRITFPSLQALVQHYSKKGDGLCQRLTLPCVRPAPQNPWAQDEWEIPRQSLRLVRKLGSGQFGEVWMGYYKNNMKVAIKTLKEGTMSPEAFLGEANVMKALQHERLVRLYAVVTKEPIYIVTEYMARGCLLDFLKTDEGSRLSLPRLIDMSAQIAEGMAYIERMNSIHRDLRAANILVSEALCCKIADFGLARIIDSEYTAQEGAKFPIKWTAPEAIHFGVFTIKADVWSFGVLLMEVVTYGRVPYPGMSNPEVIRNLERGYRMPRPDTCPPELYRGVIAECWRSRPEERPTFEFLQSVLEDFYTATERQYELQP
# NTRK3 (human), sequence (Q16288 whole entry, looked up): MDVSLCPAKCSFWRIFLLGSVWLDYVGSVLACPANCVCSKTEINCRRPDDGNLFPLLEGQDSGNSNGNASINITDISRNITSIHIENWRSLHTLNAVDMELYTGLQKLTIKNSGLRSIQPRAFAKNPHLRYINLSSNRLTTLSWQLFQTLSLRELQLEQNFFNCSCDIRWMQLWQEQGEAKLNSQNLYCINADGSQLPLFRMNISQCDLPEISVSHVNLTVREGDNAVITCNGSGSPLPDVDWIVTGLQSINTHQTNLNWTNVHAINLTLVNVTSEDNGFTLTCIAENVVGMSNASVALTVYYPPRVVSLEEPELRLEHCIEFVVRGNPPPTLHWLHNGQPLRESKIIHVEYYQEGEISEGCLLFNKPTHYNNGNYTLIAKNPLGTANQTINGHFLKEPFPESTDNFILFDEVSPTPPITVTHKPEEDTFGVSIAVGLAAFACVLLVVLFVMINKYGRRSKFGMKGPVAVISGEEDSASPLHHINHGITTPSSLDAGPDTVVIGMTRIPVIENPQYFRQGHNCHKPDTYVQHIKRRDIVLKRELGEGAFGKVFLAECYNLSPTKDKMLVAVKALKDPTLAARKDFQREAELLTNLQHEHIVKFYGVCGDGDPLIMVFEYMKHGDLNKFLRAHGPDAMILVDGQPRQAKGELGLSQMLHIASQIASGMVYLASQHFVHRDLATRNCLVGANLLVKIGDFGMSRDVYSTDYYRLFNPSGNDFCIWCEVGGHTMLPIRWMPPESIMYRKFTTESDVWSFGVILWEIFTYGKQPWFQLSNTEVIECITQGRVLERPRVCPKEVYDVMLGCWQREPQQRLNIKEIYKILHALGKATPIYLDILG
# CAMK2B (human), sequence (Q13554 whole entry, looked up): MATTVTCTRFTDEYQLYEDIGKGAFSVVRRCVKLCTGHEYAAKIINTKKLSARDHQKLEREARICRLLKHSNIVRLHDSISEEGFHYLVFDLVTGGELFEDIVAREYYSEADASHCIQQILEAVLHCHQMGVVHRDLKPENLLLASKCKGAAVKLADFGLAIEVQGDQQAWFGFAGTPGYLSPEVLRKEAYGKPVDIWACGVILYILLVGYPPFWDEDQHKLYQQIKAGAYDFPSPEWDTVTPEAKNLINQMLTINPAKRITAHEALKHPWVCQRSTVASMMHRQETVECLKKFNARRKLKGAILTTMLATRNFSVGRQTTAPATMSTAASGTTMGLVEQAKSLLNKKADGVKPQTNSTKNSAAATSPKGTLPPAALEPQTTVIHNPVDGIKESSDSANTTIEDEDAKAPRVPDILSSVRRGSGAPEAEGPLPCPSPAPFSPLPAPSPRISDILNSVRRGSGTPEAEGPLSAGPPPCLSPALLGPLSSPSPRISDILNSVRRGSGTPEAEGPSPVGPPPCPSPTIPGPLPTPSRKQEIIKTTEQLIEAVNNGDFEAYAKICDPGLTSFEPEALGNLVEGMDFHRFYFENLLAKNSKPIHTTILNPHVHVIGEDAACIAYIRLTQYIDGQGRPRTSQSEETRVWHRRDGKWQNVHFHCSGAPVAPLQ
# MAPK12 (human), sequence (P53778 whole entry, looked up): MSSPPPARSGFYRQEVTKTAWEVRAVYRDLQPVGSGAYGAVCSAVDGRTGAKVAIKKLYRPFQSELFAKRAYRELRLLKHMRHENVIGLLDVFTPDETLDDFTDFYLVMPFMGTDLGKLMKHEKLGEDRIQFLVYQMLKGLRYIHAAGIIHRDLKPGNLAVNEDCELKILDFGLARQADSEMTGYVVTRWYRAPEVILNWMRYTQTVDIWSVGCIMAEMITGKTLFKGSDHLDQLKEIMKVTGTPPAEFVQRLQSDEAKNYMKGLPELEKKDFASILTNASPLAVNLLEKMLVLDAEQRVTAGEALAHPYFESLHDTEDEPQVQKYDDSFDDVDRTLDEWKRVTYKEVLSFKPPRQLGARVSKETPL
# MYO3A (human), sequence (Q8NEV4 whole entry, looked up): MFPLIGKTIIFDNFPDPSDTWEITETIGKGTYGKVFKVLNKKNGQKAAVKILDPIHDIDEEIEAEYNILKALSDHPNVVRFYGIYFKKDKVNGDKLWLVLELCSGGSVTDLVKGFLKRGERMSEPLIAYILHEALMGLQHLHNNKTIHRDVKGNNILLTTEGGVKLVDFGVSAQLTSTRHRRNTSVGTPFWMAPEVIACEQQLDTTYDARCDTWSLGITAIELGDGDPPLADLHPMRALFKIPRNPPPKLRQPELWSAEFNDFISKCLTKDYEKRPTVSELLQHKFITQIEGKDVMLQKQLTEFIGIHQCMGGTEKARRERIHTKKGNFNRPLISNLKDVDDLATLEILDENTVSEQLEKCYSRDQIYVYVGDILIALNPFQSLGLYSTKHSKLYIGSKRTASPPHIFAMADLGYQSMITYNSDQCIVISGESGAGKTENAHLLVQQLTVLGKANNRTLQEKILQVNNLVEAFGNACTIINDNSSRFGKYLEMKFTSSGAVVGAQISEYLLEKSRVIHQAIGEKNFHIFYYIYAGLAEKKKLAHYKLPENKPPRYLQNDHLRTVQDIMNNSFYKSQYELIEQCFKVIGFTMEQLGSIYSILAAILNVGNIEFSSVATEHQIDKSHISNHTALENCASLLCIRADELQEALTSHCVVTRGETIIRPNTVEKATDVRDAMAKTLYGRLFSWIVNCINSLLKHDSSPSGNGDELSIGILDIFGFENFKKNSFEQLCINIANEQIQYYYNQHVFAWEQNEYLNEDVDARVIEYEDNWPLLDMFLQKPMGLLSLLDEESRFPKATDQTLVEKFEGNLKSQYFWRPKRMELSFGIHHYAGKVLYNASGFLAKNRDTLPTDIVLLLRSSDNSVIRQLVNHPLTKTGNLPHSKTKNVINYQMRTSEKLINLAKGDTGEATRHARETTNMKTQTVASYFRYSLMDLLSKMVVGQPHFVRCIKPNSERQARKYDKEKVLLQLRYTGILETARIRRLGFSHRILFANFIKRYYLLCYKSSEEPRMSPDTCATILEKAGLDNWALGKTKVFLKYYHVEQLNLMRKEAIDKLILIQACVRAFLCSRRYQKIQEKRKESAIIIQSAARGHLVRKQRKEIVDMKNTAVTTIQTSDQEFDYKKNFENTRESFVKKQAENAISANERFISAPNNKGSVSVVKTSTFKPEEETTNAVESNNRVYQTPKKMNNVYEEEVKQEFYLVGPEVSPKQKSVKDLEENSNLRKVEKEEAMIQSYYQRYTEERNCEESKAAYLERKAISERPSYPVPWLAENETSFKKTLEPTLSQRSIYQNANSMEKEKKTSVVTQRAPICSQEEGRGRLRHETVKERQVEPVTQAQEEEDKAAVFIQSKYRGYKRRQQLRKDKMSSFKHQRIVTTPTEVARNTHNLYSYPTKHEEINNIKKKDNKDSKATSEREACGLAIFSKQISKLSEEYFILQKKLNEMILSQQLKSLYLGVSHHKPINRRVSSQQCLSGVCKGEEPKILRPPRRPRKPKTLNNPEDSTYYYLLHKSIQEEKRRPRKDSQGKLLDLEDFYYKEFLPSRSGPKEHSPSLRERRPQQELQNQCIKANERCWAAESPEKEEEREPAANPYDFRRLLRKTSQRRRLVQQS
# STK38L (human), sequence (Q9Y2H1 whole entry, looked up): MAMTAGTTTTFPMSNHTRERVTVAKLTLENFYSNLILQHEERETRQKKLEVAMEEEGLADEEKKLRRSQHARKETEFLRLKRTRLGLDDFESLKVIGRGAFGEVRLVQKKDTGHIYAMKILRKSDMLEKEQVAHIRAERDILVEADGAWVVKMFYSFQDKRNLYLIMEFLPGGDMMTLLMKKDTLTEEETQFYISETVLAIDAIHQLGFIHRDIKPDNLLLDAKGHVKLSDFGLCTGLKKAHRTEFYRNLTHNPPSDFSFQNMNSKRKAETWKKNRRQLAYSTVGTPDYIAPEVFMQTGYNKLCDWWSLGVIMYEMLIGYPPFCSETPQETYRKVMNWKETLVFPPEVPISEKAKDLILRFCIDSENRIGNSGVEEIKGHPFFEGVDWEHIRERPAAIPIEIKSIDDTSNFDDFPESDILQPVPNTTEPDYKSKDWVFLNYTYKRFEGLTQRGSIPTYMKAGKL
# STK33 (human), sequence (Q9BYT3 whole entry, looked up): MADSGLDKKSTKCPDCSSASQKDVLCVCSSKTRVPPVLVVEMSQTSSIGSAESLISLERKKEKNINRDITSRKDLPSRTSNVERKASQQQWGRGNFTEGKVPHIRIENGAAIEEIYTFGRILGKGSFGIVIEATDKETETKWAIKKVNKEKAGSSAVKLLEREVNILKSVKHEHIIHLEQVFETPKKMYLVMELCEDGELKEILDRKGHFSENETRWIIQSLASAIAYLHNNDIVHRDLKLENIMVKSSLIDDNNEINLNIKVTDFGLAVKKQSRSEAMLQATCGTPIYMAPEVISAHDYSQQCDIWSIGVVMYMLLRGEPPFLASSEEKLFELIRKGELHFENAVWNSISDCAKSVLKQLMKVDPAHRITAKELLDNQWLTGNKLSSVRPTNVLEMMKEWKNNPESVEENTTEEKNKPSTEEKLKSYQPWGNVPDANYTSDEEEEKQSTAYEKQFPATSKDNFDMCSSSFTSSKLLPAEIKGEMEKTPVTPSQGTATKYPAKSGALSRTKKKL
structure (smiles),measurement,setting,value
CN(C)C/C=C/C(=O)Nc1cccc(C(=O)Nc2ccc(Nc3nccc(-c4cccnc4)n3)cc2)c1,"kinase still bound, per cent of control",[1],91%
same,"kinase still bound, per cent of control",PAK6 (human),87%
same,"kinase still bound, per cent of control",CDK9 (human),55%
same,"kinase still bound, per cent of control",MAP3K6 (human),100%
same,"kinase still bound, per cent of control",NEK4 (human),83%
same,"kinase still bound, per cent of control",EIF2AK2 (human),53%
same,"kinase still bound, per cent of control",PIK3C2G (human),100%
same,"kinase still bound, per cent of control",TSSK1B (human),100%
same,"kinase still bound, per cent of control",RPS6KA4 KD2 (human),65%
same,"kinase still bound, per cent of control",LATS2 (human),73%
same,"kinase still bound, per cent of control",PRKAA2 (human),81%
same,"kinase still bound, per cent of control",CDKL1 (human),54%
same,"kinase still bound, per cent of control",PRKCQ (human),100%
same,"kinase still bound, per cent of control",STK16 (human),15%
same,"kinase still bound, per cent of control",EPHA2 (human),86%
same,"kinase still bound, per cent of control",PRKACB (human),100%
same,"kinase still bound, per cent of control",CDC2L2 (human),74%
same,"kinase still bound, per cent of control",MYO3A (human),81%
same,"kinase still bound, per cent of control",NTRK3 (human),97%
same,"kinase still bound, per cent of control",MAP3K4 (human),88%
same,"kinase still bound, per cent of control",BMX (human),70%
same,"kinase still bound, per cent of control",STK33 (human),93%
same,"kinase still bound, per cent of control",EIF2AK1 (human),100%
same,"kinase still bound, per cent of control",CAMKK1 (human),64%
same,"kinase still bound, per cent of control",ACVR1 (human),70%
same,"kinase still bound, per cent of control",RPS6KA6 KD2 (human),100%
same,"kinase still bound, per cent of control",BMPR2 (human),64%
same,"kinase still bound, per cent of control",CAMK2B (human),82%
same,"kinase still bound, per cent of control",[2],1%
same,"kinase still bound, per cent of control",DAPK3 (human),65%
same,"kinase still bound, per cent of control",STK38L (human),99%
same,"kinase still bound, per cent of control",[3],27%
same,"kinase still bound, per cent of control",[4],100%
same,"kinase still bound, per cent of control",[5],78%
same,"kinase still bound, per cent of control",CDK3 (human),100%
same,"kinase still bound, per cent of control",CASK (human),100%
same,"kinase still bound, per cent of control",MAPK12 (human),78%
same,"kinase still bound, per cent of control",BLK (human),100%
same,"kinase still bound, per cent of control",EPHA1 (human),95%
same,"kinase still bound, per cent of control",PRPF4B (human),93%
same,"kinase still bound, per cent of control",DMPK (human),90%
same,"kinase still bound, per cent of control",[6],42%
same,"kinase still bound, per cent of control",STK38 (human),100%
CN(C)C/C=C/C(=O)Nc1cccc(C(=O)Nc2ccc(Nc3nccc(-c4c(-c5ccccc5)nn5ccccc45)n3)cc2)c1,"kinase still bound, per cent of control",[1],0.8%
same,"kinase still bound, per cent of control",PAK6 (human),100%
same,"kinase still bound, per cent of control",CDK9 (human),100%
same,"kinase still bound, per cent of control",MAP3K6 (human),100%
same,"kinase still bound, per cent of control",NEK4 (human),100%
same,"kinase still bound, per cent of control",EIF2AK2 (human),92%
same,"kinase still bound, per cent of control",PIK3C2G (human),100%
same,"kinase still bound, per cent of control",TSSK1B (human),86%
same,"kinase still bound, per cent of control",RPS6KA4 KD2 (human),91%
same,"kinase still bound, per cent of control",LATS2 (human),78%
same,"kinase still bound, per cent of control",PRKAA2 (human),90%
same,"kinase still bound, per cent of control",CDKL1 (human),100%
same,"kinase still bound, per cent of control",PRKCQ (human),28%
same,"kinase still bound, per cent of control",STK16 (human),37%
same,"kinase still bound, per cent of control",EPHA2 (human),76%
same,"kinase still bound, per cent of control",PRKACB (human),83%
same,"kinase still bound, per cent of control",CDC2L2 (human),32%
same,"kinase still bound, per cent of control",MYO3A (human),100%
same,"kinase still bound, per cent of control",NTRK3 (human),84%
same,"kinase still bound, per cent of control",MAP3K4 (human),80%
same,"kinase still bound, per cent of control",BMX (human),76%
same,"kinase still bound, per cent of control",STK33 (human),91%
same,"kinase still bound, per cent of control",EIF2AK1 (human),76%
same,"kinase still bound, per cent of control",CAMKK1 (human),100%
same,"kinase still bound, per cent of control",ACVR1 (human),3.8%
same,"kinase still bound, per cent of control",RPS6KA6 KD2 (human),13%
same,"kinase still bound, per cent of control",BMPR2 (human),100%
same,"kinase still bound, per cent of control",CAMK2B (human),100%
same,"kinase still bound, per cent of control",[2],0.6%
same,"kinase still bound, per cent of control",DAPK3 (human),93%
same,"kinase still bound, per cent of control",STK38L (human),100%
same,"kinase still bound, per cent of control",[3],49%
same,"kinase still bound, per cent of control",[4],10%
same,"kinase still bound, per cent of control",[5],71%
same,"kinase still bound, per cent of control",CDK3 (human),100%
same,"kinase still bound, per cent of control",CASK (human),52%
same,"kinase still bound, per cent of control",MAPK12 (human),94%
same,"kinase still bound, per cent of control",BLK (human),5.9%
same,"kinase still bound, per cent of control",EPHA1 (human),38%
same,"kinase still bound, per cent of control",PRPF4B (human),100%
same,"kinase still bound, per cent of control",DMPK (human),59%
same,"kinase still bound, per cent of control",[6],86%
same,"kinase still bound, per cent of control",STK38 (human),97%
